Where “and” joins values, the source holds several entries; their conditions need not be identical. Identical values can stand only once. Like-named read-outs stand apart in the source and are kept apart here.
Experiments:
[1] = Systemic PK after oral administration in rats; type: in vivo; conditions: plasma, oral 25 mg/kg, male SD rats
[2] = Intracerebral microdialysis and plasma PK after i.p. administration in rats; type: in vivo, male SD rats
[3] = mouse, microsomes
[4] = rat, microsomes
[5] = microsomes
[6] = tested on: AMPK; conditions: greater potency than Compound C; cited from earlier work
[7] = tested on: ULK1; conditions: read-out: IC50 ULK1; kinase inhibition assays; cited from earlier work
[8] = read-out: cytotoxicity IC50; cited from earlier work
[9] = cited from earlier work
[10] = In vitro metabolism in rat liver microsomes; conditions: rat (IGS SD) liver microsomes
[11] = In vitro metabolism in mouse liver microsomes; conditions: mouse (C57BL/6) liver microsomes
[12] = In vitro metabolism in human liver microsomes
[13] = orthotopically implanted C6 glioma, rats; cited from earlier work
[14] = cited from earlier work; remark: listed apart in the source
[15] = brain ECF, i.p. 25 mg/kg, male SD rats
[16] = i.p. 25 mg/kg, male SD rats, 25 mg/kg
[17] = plasma unbound, i.p. 25 mg/kg, male SD rats
[18] = plasma, i.p. 25 mg/kg, male SD rats
[19] = plasma, i.p. 25 mg/kg, male SD rats, 25 mg/kg

With `CNC(=O)c1ccccc1Oc1nc(Nc2cc(OC)c(OC)c(OC)c2)ncc1Br` [SBI-0206965] the AUC0-inf [1] was 703.74 ± 222.82 ng·h/mL, the “AUC0–5” value [1] was 666.71 ± 215.16 ng·h/mL and the Cmax [1] was 539.06 ± 219.94 ng/mL. For the same compound, the Tmax ([1]; non-compartmental analysis) was 15 min, the T1/2 ([1]; 25 mg/kg) was […] and the AUC0-inf [2, 15] was 783.67 ± 494.92 ng·h/mL. For the same compound, the “AUC0–5” value [2, 15] was 660.81 ± 464.32 ng·h/mL, the Tmax [2, 15] was 39 ± 12 min and the Cmax ([2]; brain ECF, i.p. 25 mg/kg, male SD rats, 25 mg/kg) was 358 ng/mL and 360 ng/mL and 358.33 ± 205.39 ng/mL. For the same compound, the “AUC0–5 ratio (brain ECF/plasma unbound)” value [2, 16] was […], the “Cmax ratio (brain ECF/plasma unbound)” value [2, 16] was […] and the “time to plasma and brain ECF peak levels” value ([2]; plasma and brain ECF, summary in abstract) was 0.25 to 0.65 h. The Cmax ([2]; plasma unbound (corrected for protein binding), i.p. 25 mg/kg, male SD rats) was 615.03 ± 173.65 ng/mL, the AUC0-inf [2, 17] was 798.89 ± 387.87 ng·h/mL and the “AUC0–5” value [2, 17] was 736.63 ± 358.26 ng·h/mL. The AUC0-inf [2, 18] was 4549.50 ± 2208.84 ng·h/mL, the “AUC0–5” value [2, 18] was 4194.92 ± 2040.20 ng·h/mL and the Tmax [2, 18] was 15 min. For the same compound, the Cmax [2, 19] was 3502 ng/mL and 3502.42 ± 988.90 ng/mL, the T1/2 [2, 19] was 63.6 ± 42 min and the “time to peak plasma concentration” value ([2]; plasma, i.p. 25 mg/kg, rats) was 15 min. For the same compound, the “brain partitioning (ratio of Cmax and AUC in brain ECF to unbound plasma)” value ([2]; rats, plasma corrected for protein binding) was […], the Cmax ([2]; read-out: brain ECF Cmax, brain ECF, i.p. 25 mg/kg, rats) was 750 nM and the elimination half-life ([2]; summary in abstract) was 60 to 120 min. The “CLint, app” value [3] was 111.06 µL/min/mg, the “CLint, app” value [4] was 42 µL/min/mg and the “CLint, app” value ([5]; human) was 71.96 µL/min/mg. The “CLint, scaled (estimated in-vitro hepatic intrinsic clearance)” value [5] was 68 mL/min/kg body weight, the “AMPK inhibition potency relative to Compound C” value [6] was 40 fold and the IC50 [7] was […]. For the same compound, the IC50 [8] was 5000 to 10000 nM, the logP [9] was 3.8 and the T1/2 [10] was 16.5 min. It also gave a T1/2 [11] of 6.24 min and a T1/2 [12] of 9.63 min.

For `N#Cc1ccc(C(c2ccc(C#N)cc2)n2cncn2)cc1` [letrozole], the “tumoral uptake relative to normal brain” value [13] is listed as “two-fold higher”.

In the case of `Cn1nnc2c(C(N)=O)ncn2c1=O` [temozolomide], the elimination half-life [14] is listed as “approximately 2 h”.
